In patent US20060104901A1, “Preventing or treating epithelial tissue damage or hair loss” (priority 2002, published 2006):

Tested on: CD1d gene transcription
Test: CD1d mRNA by Real Time PCR in primary human keratinocytes under H2O2 chemical stress
Type: cell-based
Conditions: primary human keratinocytes exposed to 300 μM H2O2, KGM with vs without hydrocortisone, RNA at different times after treatment, FIG. 11
Procedure: Primary human keratinocytes were grown in complete KGM before being exposed to 300 μM H2O2 as a stress factor. 48 hours after seeding, KGM medium was replaced by KGM without hydrocortisone and cultures were treated with 300 μM of H2O2. Total RNA was extracted at different time after treatment and CD1d mRNA quantified by Real Time PCR.
For Taq Man Assays, Applied Biosystems recommends to use 10 to 100 ng of initial RNA quantity per well. Consequently, first strand cDNA synthesis was performed in a 20 μl volume using 1 μg of total RNA and […] of random hexamers following the manufacturer's recommendations (Superscript™ First-Strand Synthesis System for RT-PCR, 11904-018, Invitrogen). 1 μl of the resulting cDNA samples was used for amplification by Real Time PCR. […]
All the cDNA samples were tested in triplicate. […] The plate was sealed, centrifuged at 2000 rpm for 30 seconds and placed in a 5700 Sequence Detection System for thermal cycling and fluorescence analysis using the following PCR program: […]
Results were analyzed using the GeneAmp® 5700 SDS software. […]
The gene expression fold changes obtained in the test condition compared to the control condition were determined by the comparative Ct method using the following formula: [formula] […]

C[C@]12CCC(=O)C=C1CC[C@@H]1[C@@H]2[C@@H](O)C[C@@]2(C)[C@H]1CC[C@]2(O)C(=O)CO [Hydrocortisone]
CD1d gene transcription (CD1d mRNA, fold change by comparative Ct method): able to down-regulate CD1d expression
CD1d gene transcription (CD1d mRNA, fold change by comparative Ct method) (listed as hydrocortisone): suppresses CD1d transcription
